Test results reported in PubChem BioAssay AID256 (DTP/NCI, 2004).
Values joined by “and” are separate entries in the source; they are usually repeats but may differ in a detail not shown here. Equal entries are not always repeated. Toxic doses and inconclusive results are not listed.

Tested on: CD2F1 mice, L1210 leukemia ip, survival T/C
Assay: NCI In Vivo Anticancer Drug Screen. Data for tumor model L1210 Leukemia (intraperitoneal) in CD2F1 (CDF1) mice
Details: higher = longer survival
In short: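 In this screen, transplantable tumors were grown in mice given either the compound or its vehicle. Results were expressed as the treated measurement relative to the control measurement.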

SMILES: Cc1cc(NCCCCCCNc2cc(C)nc3ccc(N)cc23)c2cc(N)ccc2n1
- T/C (endpoint: mean survival time, dose: 0.16 mg/kg/injection, schedule: Q08HX006 (iv), vehicle: water): 103 % of control
- T/C (endpoint: mean survival time, dose: 0.31 mg/kg/injection, schedule: Q08HX006 (iv), vehicle: water): 104 % of control
- T/C (endpoint: mean survival time, dose: 0.4 mg/kg/injection, schedule: Q08HX009 (ip), vehicle: water): 105 % of control
- T/C (endpoint: mean survival time, dose: 0.6 mg/kg/injection, schedule: Q01DX009 (ip), vehicle: water): 98 % of control
- T/C (endpoint: mean survival time, dose: 0.6 mg/kg/injection, schedule: Q08HX009 (iv), vehicle: water): 88 % of control
- T/C (endpoint: mean survival time, dose: 0.63 mg/kg/injection, schedule: Q08HX006 (iv), vehicle: water): 92 % of control
- T/C (endpoint: mean survival time, dose: 0.8 mg/kg/injection, schedule: Q08HX009 (ip), vehicle: water): 101 % of control
- T/C (endpoint: mean survival time, dose: 1.1 mg/kg/injection, schedule: Q01DX005 (iv), vehicle: water): 104 % of control
- T/C (endpoint: mean survival time, dose: 1.2 mg/kg/injection, schedule: Q01DX009 (ip), vehicle: water): 97 % of control
- T/C (endpoint: mean survival time, dose: 1.25 mg/kg/injection, schedule: Q08HX006 (iv), vehicle: water): 103 % of control
- T/C (endpoint: mean survival time, dose: 1.3 mg/kg/injection, schedule: Q08HX009 (iv), vehicle: water): 94 % of control
- T/C (endpoint: mean survival time, dose: 1.4 mg/kg/injection, schedule: Q01DX005 (iv), vehicle: water): 98 % of control
- T/C (endpoint: mean survival time, dose: 1.56 mg/kg/injection, schedule: Q01DX009 (ip), vehicle: water): 103 % of control and 111 % of control
- T/C (endpoint: mean survival time, dose: 1.6 mg/kg/injection, schedule: Q08HX009 (ip), vehicle: water): 104 % of control
- T/C (endpoint: mean survival time, dose: 1.9 mg/kg/injection, schedule: Q01DX005 (iv), vehicle: water): 101 % of control
- T/C (endpoint: mean survival time, dose: 1.9 mg/kg/injection, schedule: Q08HX009 (iv), vehicle: saline with Tween-80): 92 % of control
- T/C (endpoint: mean survival time, dose: 2.4 mg/kg/injection, schedule: Q01DX009 (ip), vehicle: saline with Tween-80): 114 % of control and 116 % of control
- T/C (endpoint: mean survival time, dose: 2.4 mg/kg/injection, schedule: Q01DX009 (ip), vehicle: water): 111 % of control
- T/C (endpoint: mean survival time, dose: 2.5 mg/kg/injection, schedule: Q01DX005 (iv), vehicle: water): 103 % of control
- T/C (endpoint: mean survival time, dose: 2.5 mg/kg/injection, schedule: Q08HX006 (iv), vehicle: water): 105 % of control
- T/C (endpoint: mean survival time, dose: 2.5 mg/kg/injection, schedule: Q08HX009 (ip), vehicle: saline with Tween-80): 119 % of control
- T/C (endpoint: mean survival time, dose: 2.5 mg/kg/injection, schedule: Q08HX009 (iv), vehicle: water): 93 % of control
- T/C (endpoint: mean survival time, dose: 2.53 mg/kg/injection, schedule: Q01DX005 (iv), vehicle: water): 95 % of control
- T/C (endpoint: mean survival time, dose: 2.58 mg/kg/injection, schedule: Q01DX005 (iv), vehicle: saline with Tween-80): 101 % of control
- T/C (endpoint: mean survival time, dose: 3.0 mg/kg/injection, schedule: Q01DX009 (ip), vehicle: water): 95 % of control and 107 % of control
- T/C (endpoint: mean survival time, dose: 3.13 mg/kg/injection, schedule: Q01DX009 (ip), vehicle: water): 113 % of control and 124 % of control
- T/C (endpoint: mean survival time, dose: 3.2 mg/kg/injection, schedule: Q08HX009 (ip), vehicle: water): 112 % of control
- T/C (endpoint: mean survival time, dose: 3.38 mg/kg/injection, schedule: Q01DX005 (iv), vehicle: water): 100 % of control
- T/C (endpoint: mean survival time, dose: 3.38 mg/kg/injection, schedule: Q01DX009 (sc), vehicle: water): 98 % of control
- T/C (endpoint: mean survival time, dose: 3.4 mg/kg/injection, schedule: Q01DX005 (iv), vehicle: water): 101 % of control
- T/C (endpoint: mean survival time, dose: 3.44 mg/kg/injection, schedule: Q01DX009 (ip), vehicle: saline with Tween-80): 114 % of control
- T/C (endpoint: mean survival time, dose: 3.44 mg/kg/injection, schedule: Q01DX009 (sc), vehicle: saline with Tween-80): 100 % of control
- T/C (endpoint: mean survival time, dose: 3.7 mg/kg/injection, schedule: Q01DX009 (ip), vehicle: saline with Tween-80): 117 % of control
- T/C (endpoint: mean survival time, dose: 3.8 mg/kg/injection, schedule: Q08HX006 (iv), vehicle: saline with Tween-80): 101 % of control
- T/C (endpoint: mean survival time, dose: 3.8 mg/kg/injection, schedule: Q08HX009 (iv), vehicle: saline with Tween-80): 88 % of control
- T/C (endpoint: mean survival time, dose: 4.51 mg/kg/injection, schedule: Q01DX009 (ip), vehicle: water): 113 % of control
- T/C (endpoint: mean survival time, dose: 4.59 mg/kg/injection, schedule: Q01DX009 (ip), vehicle: saline with Tween-80): 115 % of control
- T/C (endpoint: mean survival time, dose: 4.59 mg/kg/injection, schedule: Q01DX009 (sc), vehicle: saline with Tween-80): 96 % of control
- T/C (endpoint: mean survival time, dose: 4.7 mg/kg/injection, schedule: Q01DX009 (ip), vehicle: saline with Tween-80): 121 % of control
- T/C (endpoint: mean survival time, dose: 4.8 mg/kg/injection, schedule: Q01DX009 (ip), vehicle: water): 114 % of control
- T/C (endpoint: mean survival time, dose: 5.0 mg/kg/injection, schedule: Q08HX006 (iv), vehicle: water): 100 % of control
- T/C (endpoint: mean survival time, dose: 5.3 mg/kg/injection, schedule: Q01DX009 (ip), vehicle: water): 114 % of control and 97 % of control
- T/C (endpoint: mean survival time, dose: 6.12 mg/kg/injection, schedule: Q01DX005 (iv), vehicle: saline with Tween-80): 97 % of control
- T/C (endpoint: mean survival time, dose: 6.12 mg/kg/injection, schedule: Q01DX009 (ip), vehicle: saline with Tween-80): 119 % of control
- T/C (endpoint: mean survival time, dose: 6.12 mg/kg/injection, schedule: Q01DX009 (sc), vehicle: saline with Tween-80): 97 % of control
- T/C (endpoint: mean survival time, dose: 6.25 mg/kg/injection, schedule: Q01DX009 (ip), vehicle: water): 122 % of control
- T/C (endpoint: mean survival time, dose: 6.4 mg/kg/injection, schedule: Q08HX009 (ip), vehicle: water): 121 % of control
- T/C (endpoint: mean survival time, dose: 7.2 mg/kg/injection, schedule: Q01DX009 (ip), vehicle: saline with Tween-80): 115 % of control
- T/C (endpoint: mean survival time, dose: 7.4 mg/kg/injection, schedule: Q01DX009 (ip), vehicle: saline with Tween-80): 120 % of control
- T/C (endpoint: mean survival time, dose: 7.6 mg/kg/injection, schedule: Q08HX006 (iv), vehicle: saline with Tween-80): 101 % of control
- T/C (endpoint: mean survival time, dose: 7.6 mg/kg/injection, schedule: Q08HX009 (iv), vehicle: saline with Tween-80): 89 % of control
- T/C (endpoint: mean survival time, dose: 8.2 mg/kg/injection, schedule: Q01DX009 (sc), vehicle: saline with Tween-80): 98 % of control
- T/C (endpoint: mean survival time, dose: 9.0 mg/kg/injection, schedule: Q01DX009 (ip), vehicle: saline): 121 % of control
- T/C (endpoint: mean survival time, dose: 9.4 mg/kg/injection, schedule: Q01DX009 (ip), vehicle: water): 118 % of control
- T/C (endpoint: mean survival time, dose: 10.9 mg/kg/injection, schedule: Q01DX009 (sc), vehicle: saline with Tween-80): 98 % of control
- T/C (endpoint: mean survival time, dose: 12.8 mg/kg/injection, schedule: Q01DX009 (ip), vehicle: saline with Tween-80): 115 % of control
- T/C (endpoint: mean survival time, dose: 14.5 mg/kg/injection, schedule: Q01DX009 (ip), vehicle: saline with Tween-80): 156 % of control
- T/C (endpoint: mean survival time, dose: 15.3 mg/kg/injection, schedule: Q08HX009 (iv), vehicle: saline with Tween-80): 89 % of control
- T/C (endpoint: mean survival time, dose: 19.0 mg/kg/injection, schedule: Q01DX009 (sc), vehicle: water): 113 % of control
- T/C (endpoint: mean survival time, dose: 19.4 mg/kg/injection, schedule: Q01DX005 (iv), vehicle: saline with Tween-80): 118 % of control and 119 % of control
- T/C (endpoint: mean survival time, dose: 19.4 mg/kg/injection, schedule: Q01DX009 (ip), vehicle: saline with Tween-80): 165 % of control
- T/C (endpoint: mean survival time, dose: 19.4 mg/kg/injection, schedule: Q01DX009 (sc), vehicle: saline with Tween-80): 115 % of control
- T/C (endpoint: mean survival time, dose: 19.6 mg/kg/injection, schedule: Q08HX009 (ip), vehicle: saline with Tween-80): 151 % of control
- T/C (endpoint: mean survival time, dose: 22.7 mg/kg/injection, schedule: Q01DX009 (ip), vehicle: saline with Tween-80): 118 % of control
- T/C (endpoint: mean survival time, dose: 25.0 mg/kg/injection, schedule: Q01DX009 (ip), vehicle: water): 109 % of control
- T/C (endpoint: mean survival time, dose: 25.3 mg/kg/injection, schedule: Q01DX009 (ip), vehicle: water): 160 % of control
- T/C (endpoint: mean survival time, dose: 25.3 mg/kg/injection, schedule: Q01DX009 (sc), vehicle: water): 115 % of control
- T/C (endpoint: mean survival time, dose: 25.8 mg/kg/injection, schedule: Q01DX005 (iv), vehicle: saline with Tween-80): 117 % of control and 120 % of control
- T/C (endpoint: mean survival time, dose: 25.8 mg/kg/injection, schedule: Q01DX009 (ip), vehicle: saline with Tween-80): 166 % of control
- T/C (endpoint: mean survival time, dose: 25.8 mg/kg/injection, schedule: Q01DX009 (sc), vehicle: saline with Tween-80): 123 % of control
- T/C (endpoint: mean survival time, dose: 29.4 mg/kg/injection, schedule: Q01DX009 (ip), vehicle: saline with Tween-80): 171 % of control
- T/C (endpoint: mean survival time, dose: 30.6 mg/kg/injection, schedule: Q08HX009 (iv), vehicle: saline with Tween-80): 95 % of control
- T/C (endpoint: mean survival time, dose: 33.8 mg/kg/injection, schedule: Q01DX009 (sc), vehicle: water): 124 % of control
- T/C (endpoint: mean survival time, dose: 34.4 mg/kg/injection, schedule: Q01DX005 (iv), vehicle: saline with Tween-80): 116 % of control and 123 % of control
- T/C (endpoint: mean survival time, dose: 34.4 mg/kg/injection, schedule: Q01DX009 (ip), vehicle: saline with Tween-80): 167 % of control
- T/C (endpoint: mean survival time, dose: 34.4 mg/kg/injection, schedule: Q01DX009 (sc), vehicle: saline with Tween-80): 124 % of control
- T/C (endpoint: mean survival time, dose: 39.2 mg/kg/injection, schedule: Q08HX009 (ip), vehicle: saline with Tween-80): 165 % of control
- T/C (endpoint: mean survival time, dose: 40.4 mg/kg/injection, schedule: Q01DX009 (ip), vehicle: saline with Tween-80): 123 % of control
- T/C (endpoint: mean survival time, dose: 45.9 mg/kg/injection, schedule: Q01DX009 (ip), vehicle: saline with Tween-80): 171 % of control
- T/C (endpoint: mean survival time, dose: 58.8 mg/kg/injection, schedule: Q01DX009 (ip), vehicle: saline with Tween-80): 185 % of control
- T/C (endpoint: mean survival time, dose: 71.8 mg/kg/injection, schedule: Q01DX009 (ip), vehicle: saline with Tween-80): 157 % of control
- T/C (endpoint: mean survival time, dose: 78.4 mg/kg/injection, schedule: Q08HX009 (ip), vehicle: saline with Tween-80): 180 % of control
- T/C (endpoint: mean survival time, dose: 117.6 mg/kg/injection, schedule: Q01DX009 (ip), vehicle: saline with Tween-80): 98 % of control
- T/C (endpoint: mean survival time, dose: 127.8 mg/kg/injection, schedule: Q01DX009 (ip), vehicle: saline with Tween-80): 151 % of control
- T/C (endpoint: mean survival time, dose: 150.0 mg/kg/injection, schedule: Q01DX009 (ip), vehicle: saline with Tween-80): 168 % of control and 174 % of control
- T/C (endpoint: mean survival time, dose: 300.0 mg/kg/injection, schedule: Q01DX009 (ip), vehicle: saline with Tween-80): 120 % of control
- T/C (endpoint: median survival time, dose: 0.78 mg/kg/injection, schedule: Q01DX009 (ip), vehicle: water): 98 % of control
- T/C (endpoint: median survival time, dose: 1.56 mg/kg/injection, schedule: Q01DX009 (ip), vehicle: water): 93 % of control
- T/C (endpoint: median survival time, dose: 3.12 mg/kg/injection, schedule: Q01DX009 (ip), vehicle: water): 98 % of control
- T/C (endpoint: median survival time, dose: 6.25 mg/kg/injection, schedule: Q01DX009 (ip), vehicle: water): 109 % of control
- T/C (endpoint: median survival time, dose: 12.5 mg/kg/injection, schedule: Q01DX009 (ip), vehicle: water): 117 % of control
